This passage reports melting point results from a melting point compilation (Tetko et al.).

In the case of `C=C/C=C(C)/C=N/Nc1ccc([N+](=O)[O-])cc1[N+](=O)[O-]`, the melting point amounted to 171 °C.
As for `N#CCn1cnc(Cl)c1Cl`, the figure is 95 to 99 °C; as for `O=C(O)c1ccc2nsnc2c1`, 229 to 231 °C.
`Nc1ccc(NC(=O)c2ccc(N)cc2)cc1` gave a melting point of 203 to 207 °C.
`Oc1n[nH]c2nc3ccccc3nc12` showed a melting point of 304 to 305 °C.
The molecule `CC(=O)OCC1OC(c2nn[nH]n2)C(N2C(=O)c3ccccc3C2=O)C(OC(C)=O)C1OC(C)=O` (stereo not drawn) showed a melting point of 98 °C.
Molecule `ClCC1CN(Cc2ccccc2)CCO1` (stereo not drawn) had a melting point of 46 to 50 °C.
For `CC(=O)CCc1ccc(CCC(C)NC(=O)c2ccccc2)cc1` (stereo not drawn), the melting point is 122 °C.
`Oc1cccc(Cl)n1` displayed a melting point of 130 °C.
As for `C=CCNc1nc(N)c(C(N)=O)s1`, the figure is 158 to 160 °C; as for `N#Cc1cc(F)cc(Br)c1`, 43 to 46 °C.
As to `Cc1ccc(F)c(C=O)c1Cl`, the melting point is 46 to 50 °C.
`COc1ccc2c(c1)CC1(CCC(c3ccc(C(C)(C)C)cc3)CC1)C2=O` (stereo not drawn) gave a melting point of 166 to 167 °C.
Consider `Cc1ccc2sccc2c1`, for which the melting point lay within 35 to 36 °C.
Turning to `N#CC(c1ccc(O)cc1)N1CCOCC1` (stereo not drawn), the melting point was in the range of 148 to 150 °C.
As for `CNN=C(N)C(S)=NNC`, the figure is 185 °C.
`COC(=O)CCC(C)C1CCC2C3C(OC(C)=O)C(Br)C4CCCCC4(C)C3CCC12C` (stereo not drawn) showed a melting point of 158 to 159 °C.
With `CC12CCC(=O)C=C1CCC1C2CCC2(C)CCCC12O` (stereo not drawn) the figure was 180 °C.
With `ClCc1nc(-c2ccc(OCc3ccc(Cl)cc3)cc2)no1` the figure was 118 °C; with `O=[N+]([O-])c1ccc(NN=CC2=C(C#Cc3ccccc3)CCCC2)c([N+](=O)[O-])c1`, 198 to 199 °C.
`O=C(O)Cc1ccc(Cl)cc1Cl` returned a melting point of 129 °C.
Regarding `CCCC(/C=C1\C(=O)C2(C)CCC1C2(C)C)(/C=C1\C(=O)C2(C)CCC1C2(C)C)C(=O)OCC` (stereo not drawn), the melting point is 161 °C.
As for `CCCCCCCCCCCCCCCCCCCCCCCCCCO`, the melting point came out at 80 °C.
In the case of `C=CCN(CC=C)c1c(C)cc(OC(=O)NC)cc1C`, the melting point was found to be 67 °C.
Molecule `COc1ccccc1C1CCN(c2ccc(C=CC(=O)O)cc2[N+](=O)[O-])CC1` came in with a melting point of 204 to 206 °C.
As for `O=C(O)CN(CCO)CCO`, the figure is 190 to 192 °C.
With `O=C1C=C(NCCNc2ccccc2)C(=O)c2ccccc21`, the melting point lay in the range of 140 to 142 °C.
With `CSc1nc(N)n[nH]1` the figure was 130 to 133 °C; with `CC(CN1C(=O)c2cccnc2Nc2ccccc21)N(C)C` (stereo not drawn), 122 °C.
On to `CCCC(C)Cl` (stereo not drawn), for which the melting point was -80 °C.
Take `C#Cc1ccc(-c2ccccc2)cc1`: the melting point lay in the range of 80 to 87 °C.
`CCCCCC=CCC=CCC=CCC=CCCCC(=O)O` had a melting point of -49.5 °C.
For `Cc1ccc(N(SC(F)(Cl)Cl)S(=O)(=O)N(C)C)cc1`, the melting point turned out to be 96 °C.
On to `CC1(C)OC(C)(C(C)(C)O)CCC1C(=O)O` (stereo not drawn), for which the melting point was 111 °C.
As for `FC(F)(F)C(Cl)(Cl)C(Cl)(Cl)C(F)(F)F`, the figure is 83.5 °C; as for `C=COC(=O)C(CC)CCCC` (stereo not drawn), -90 °C; as for `c1cc2ccc3ccc4ccc5cccc6c(c1)c2c3c4c56`, 278 °C.
`CCCC(C)(COC(N)=O)COC(N)=O` returned a melting point of 104 °C.
Consider `CC(C)(C)OC(=O)N1CCCC(O)C1` (stereo not drawn), for which the melting point stood at 68 °C.
For the molecule `CCOC(=O)C(C#N)=C(N)c1cc2cc(Br)ccc2oc1=O`, the melting point is 270 to 272 °C.
`CSC(S)=Nc1ccc(Cl)cc1`: the melting point is 112 to 113 °C.
`Oc1ccc2ccc3cccc4ccc1c2c34` gave a melting point of 180 °C.
Molecule `C/C(=N\CCO)c1c(O)c2ccccc2n(-c2ccccc2)c1=O` gave a melting point of 201 to 202 °C.
`CN(C)C1=C(C=C(c2ccc(F)cc2)c2ccc(F)cc2)C(=O)N(c2ccccc2)C1=O` came in with a melting point of 157 °C.
With `C=C(C)C1Cc2c(ccc3c2OC2COc4cc(OC)c(OC)cc4C2C3=O)O1` (stereo not drawn), the melting point amounted to 176 °C.
With `OCc1ccc(N2CCCCC2)cc1`, the melting point was 148 to 149 °C.
Molecule `c1ccc(Nc2nc(N3CCOCC3)nc(N3CCOCC3)n2)cc1` yielded a melting point of 173 °C.
As for `S=C(NN=Cc1c(-c2ccc(Cl)cc2)[nH]c2ccccc12)Nc1ccc(Cl)cc1`, the melting point was 215 to 217 °C.
Molecule `O=C(c1cc(O)c(O)c(O)c1)c1ccc(O)c(O)c1O` had a melting point of 270 °C.
With `N#C/C(=C\c1cccs1)c1nc(-c2cccc3ccccc23)cs1`, the melting point was in the range of 205 to 207 °C.
With `N#Cc1ccc(O)c(O)c1`, the melting point was in the range of 154 to 156 °C.
With `CCOC(=O)C(N)=O` the figure was 112 to 115 °C.
In turn, `CC(C)(C)C(O)C(=Cc1ccc(Cl)cc1Cl)n1cncn1` (stereo not drawn) registered a melting point of 148 to 149 °C.
`NC(=O)CC[C@H](NC(=O)OCC1c2ccccc2-c2ccccc21)C(=O)O` registered a melting point of 218 to 223 °C.
`Cc1cccc2c(C=O)c[nH]c12` came in with a melting point of 210 °C.
As to `CCCOC(=O)c1cc(O)c(O)c(O)c1`, the melting point was 148 °C.
With `CCc1n[nH]c2cc(-c3ccccc3)nn12` the figure was 188 to 190 °C; with `Nc1cc(Br)cnc1N`, 160 to 165 °C; with `O=C1CCCC(O)=C1Cl`, 198 to 204 °C.
On to `COC1C=CC2=CCN3CCC4=C(CC(=O)OC4)C23C1` (stereo not drawn), for which the melting point turned out to be 99.5 °C.
Regarding `CNC(=O)Oc1cc(C)c(SC)c(C)c1`, the melting point is 120 °C.
`Oc1ccc(C2COc3cc(O)ccc3C2)cc1` (stereo not drawn): the melting point was found to be 190 °C.
In the case of `CC12CCC(O)C=C1CCC1C2CCC2(C)C(c3ccc(=O)oc3)CCC12O` (stereo not drawn), the melting point came out at 235 °C.
`CC(C)(O)CCc1ccccc1` came in with a melting point of 24.5 °C.
In the case of `N#CC(C#N)=C(CC=O)c1ccc(Cl)cc1`, the melting point came to 100 °C.
On to `S=C(SN1CCOCC1)N1CCOCC1`, for which the melting point worked out at 139 °C.
As for `O=C(C=Cc1ccc2c(c1)OCO2)c1ccc(O)cc1`, the melting point fell in the range of 209 to 210 °C.
`C1=C\c2ccc(cc2)-c2ccccc2-c2ccc/1cc2` showed a melting point of 230 °C.
The molecule `COc1ccc(N=C=S)cc1OC` displayed a melting point of 48 °C.
`CCC(CO)NC(=O)C1C=C2c3cccc4c3c(cn4C)CC2N(C)C1` (stereo not drawn) came in with a melting point of 195 °C.
`O=c1c2ccccc2[nH]c(=S)n1-c1ccccc1` showed a melting point of 309 to 311 °C.
As for `N#CC1=C(C#N)C(=O)C(NCCc2ccccc2)=C(Cl)C1=O`, the melting point lay within 265 to 267 °C.
Molecule `CCOC(=O)c1ccc(NC(=O)C(C(F)(F)F)C(F)(F)F)cc1` had a melting point of 166 °C.
Molecule `COc1ccc(OC)c(S(=O)(=O)Cl)c1` had a melting point of 115 to 116 °C.
The molecule `O=Cc1c(Cl)ccc(Cl)c1Cl` returned a melting point of 86 to 89 °C.
With `Nc1ccc2c(c1)CCC2=O` the figure was 184 to 186 °C.
Molecule `O=C(O)c1cnc2ccccn12` showed a melting point of 196 to 197 °C.
As for `O=[N+]([O-])c1ccccc1SC1OC(CO)C(O)C(O)C1O` (stereo not drawn), the figure is 196 to 203 °C.

Broadly, the melting point is the temperature of the solid-liquid transition.
